The values that follow come from ChEMBL document CHEMBL5465560, “Selectivity Literature for EUbOPEN Chemogenomic Library” (2024).

The test system of assay [1] is ALK tyrosine kinase receptor (Homo sapiens), Q9UM73 [C1156Y]. The experiment in a line: Selectivity interaction (KinomeScan (DiscoverX)) EUB0000229b ALK. To be noted: at 1 µM.
Assay [2] deals with T1, Testis-specific serine/threonine-protein kinase 1 (Homo sapiens) (UniProt Q9BXA7).
T1 sequence (whole entry): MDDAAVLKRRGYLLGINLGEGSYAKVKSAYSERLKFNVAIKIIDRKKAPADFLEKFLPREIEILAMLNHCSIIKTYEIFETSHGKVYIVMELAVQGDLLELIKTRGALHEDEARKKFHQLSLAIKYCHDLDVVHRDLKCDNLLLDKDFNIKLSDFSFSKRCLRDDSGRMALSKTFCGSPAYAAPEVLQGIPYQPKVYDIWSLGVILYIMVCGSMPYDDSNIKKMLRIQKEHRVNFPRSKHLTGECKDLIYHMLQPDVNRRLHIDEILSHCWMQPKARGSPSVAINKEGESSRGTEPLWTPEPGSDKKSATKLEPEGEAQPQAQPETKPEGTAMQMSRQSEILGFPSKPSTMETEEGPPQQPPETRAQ
The experiment in a line: Selectivity interaction (KinomeScan (DiscoverX)) EUB0001079a TSSK1B. The conditions noted are these: at 1 µM.

For assay [3], the target named is T2, Phosphatidylinositol 3-kinase C2 domain-containing subunit gamma (Homo sapiens) (UniProt O75747).
T2 sequence (whole entry): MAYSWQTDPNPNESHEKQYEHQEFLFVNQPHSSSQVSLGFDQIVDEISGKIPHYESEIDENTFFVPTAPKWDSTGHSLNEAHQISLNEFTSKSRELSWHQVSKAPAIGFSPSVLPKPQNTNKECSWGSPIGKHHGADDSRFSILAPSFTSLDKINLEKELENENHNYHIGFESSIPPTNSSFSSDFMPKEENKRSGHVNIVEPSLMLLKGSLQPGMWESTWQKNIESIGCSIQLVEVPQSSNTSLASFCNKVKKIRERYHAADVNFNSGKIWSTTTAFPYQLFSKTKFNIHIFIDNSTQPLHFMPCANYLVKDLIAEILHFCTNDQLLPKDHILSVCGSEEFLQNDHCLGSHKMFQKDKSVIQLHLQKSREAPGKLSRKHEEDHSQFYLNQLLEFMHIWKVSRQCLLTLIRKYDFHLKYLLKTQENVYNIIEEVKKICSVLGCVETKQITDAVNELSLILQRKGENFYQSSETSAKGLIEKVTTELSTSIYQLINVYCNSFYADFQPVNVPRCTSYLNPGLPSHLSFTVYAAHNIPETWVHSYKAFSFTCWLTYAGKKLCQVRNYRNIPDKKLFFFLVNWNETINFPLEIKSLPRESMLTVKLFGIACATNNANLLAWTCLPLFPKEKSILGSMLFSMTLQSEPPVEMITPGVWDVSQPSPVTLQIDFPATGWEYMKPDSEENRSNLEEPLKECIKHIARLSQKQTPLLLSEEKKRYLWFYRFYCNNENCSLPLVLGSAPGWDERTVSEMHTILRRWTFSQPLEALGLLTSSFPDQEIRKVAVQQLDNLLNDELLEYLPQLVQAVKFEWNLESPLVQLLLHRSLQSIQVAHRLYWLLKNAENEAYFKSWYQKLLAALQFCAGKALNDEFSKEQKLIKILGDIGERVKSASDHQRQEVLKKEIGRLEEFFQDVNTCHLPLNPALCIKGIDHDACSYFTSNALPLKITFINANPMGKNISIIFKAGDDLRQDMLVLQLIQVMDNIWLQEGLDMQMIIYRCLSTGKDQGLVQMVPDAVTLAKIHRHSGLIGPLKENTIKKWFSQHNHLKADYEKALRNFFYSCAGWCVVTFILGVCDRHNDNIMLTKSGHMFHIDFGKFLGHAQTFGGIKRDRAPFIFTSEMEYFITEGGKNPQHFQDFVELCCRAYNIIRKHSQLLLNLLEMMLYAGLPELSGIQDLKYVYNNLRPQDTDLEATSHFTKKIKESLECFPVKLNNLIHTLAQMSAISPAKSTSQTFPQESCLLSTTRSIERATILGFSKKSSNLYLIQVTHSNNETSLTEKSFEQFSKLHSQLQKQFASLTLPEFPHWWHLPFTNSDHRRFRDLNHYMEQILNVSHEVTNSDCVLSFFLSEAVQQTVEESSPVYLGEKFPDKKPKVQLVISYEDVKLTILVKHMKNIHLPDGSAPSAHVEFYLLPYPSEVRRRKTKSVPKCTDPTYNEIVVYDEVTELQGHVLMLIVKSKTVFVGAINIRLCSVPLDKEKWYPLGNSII
The experiment in a line: Selectivity interaction (KinomeScan (DiscoverX)) EUB0001079a PIK3C2G. To be noted: at 1 µM.

For assay [4], the target named is T3, cGMP-dependent protein kinase 1 (Homo sapiens) (UniProt Q13976).
T3 sequence (whole entry): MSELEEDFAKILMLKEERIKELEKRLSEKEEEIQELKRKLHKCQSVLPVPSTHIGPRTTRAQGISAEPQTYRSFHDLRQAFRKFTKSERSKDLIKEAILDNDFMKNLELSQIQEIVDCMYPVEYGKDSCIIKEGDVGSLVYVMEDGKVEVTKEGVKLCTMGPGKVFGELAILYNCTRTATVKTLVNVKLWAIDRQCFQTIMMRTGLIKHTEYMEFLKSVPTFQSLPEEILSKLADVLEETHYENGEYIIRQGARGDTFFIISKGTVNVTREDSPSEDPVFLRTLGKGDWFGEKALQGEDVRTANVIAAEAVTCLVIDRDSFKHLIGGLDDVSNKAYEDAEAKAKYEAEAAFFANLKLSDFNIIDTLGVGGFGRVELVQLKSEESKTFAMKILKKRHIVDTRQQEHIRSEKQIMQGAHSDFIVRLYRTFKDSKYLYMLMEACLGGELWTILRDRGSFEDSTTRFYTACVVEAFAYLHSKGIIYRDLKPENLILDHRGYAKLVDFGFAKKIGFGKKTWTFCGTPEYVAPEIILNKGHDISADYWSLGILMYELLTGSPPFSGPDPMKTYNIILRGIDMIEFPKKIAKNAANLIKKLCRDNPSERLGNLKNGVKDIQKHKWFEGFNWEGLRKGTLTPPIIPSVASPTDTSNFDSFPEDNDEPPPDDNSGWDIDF
The experiment in a line: Selectivity interaction (KinomeScan (DiscoverX)) EUB0000045b PRKG1.

Each structure is given as a SMILES string.

Sequence of ALK tyrosine kinase receptor (Homo sapiens), Q9UM73 [C1156Y] (Q9UM73 whole entry C1156Y, looked up): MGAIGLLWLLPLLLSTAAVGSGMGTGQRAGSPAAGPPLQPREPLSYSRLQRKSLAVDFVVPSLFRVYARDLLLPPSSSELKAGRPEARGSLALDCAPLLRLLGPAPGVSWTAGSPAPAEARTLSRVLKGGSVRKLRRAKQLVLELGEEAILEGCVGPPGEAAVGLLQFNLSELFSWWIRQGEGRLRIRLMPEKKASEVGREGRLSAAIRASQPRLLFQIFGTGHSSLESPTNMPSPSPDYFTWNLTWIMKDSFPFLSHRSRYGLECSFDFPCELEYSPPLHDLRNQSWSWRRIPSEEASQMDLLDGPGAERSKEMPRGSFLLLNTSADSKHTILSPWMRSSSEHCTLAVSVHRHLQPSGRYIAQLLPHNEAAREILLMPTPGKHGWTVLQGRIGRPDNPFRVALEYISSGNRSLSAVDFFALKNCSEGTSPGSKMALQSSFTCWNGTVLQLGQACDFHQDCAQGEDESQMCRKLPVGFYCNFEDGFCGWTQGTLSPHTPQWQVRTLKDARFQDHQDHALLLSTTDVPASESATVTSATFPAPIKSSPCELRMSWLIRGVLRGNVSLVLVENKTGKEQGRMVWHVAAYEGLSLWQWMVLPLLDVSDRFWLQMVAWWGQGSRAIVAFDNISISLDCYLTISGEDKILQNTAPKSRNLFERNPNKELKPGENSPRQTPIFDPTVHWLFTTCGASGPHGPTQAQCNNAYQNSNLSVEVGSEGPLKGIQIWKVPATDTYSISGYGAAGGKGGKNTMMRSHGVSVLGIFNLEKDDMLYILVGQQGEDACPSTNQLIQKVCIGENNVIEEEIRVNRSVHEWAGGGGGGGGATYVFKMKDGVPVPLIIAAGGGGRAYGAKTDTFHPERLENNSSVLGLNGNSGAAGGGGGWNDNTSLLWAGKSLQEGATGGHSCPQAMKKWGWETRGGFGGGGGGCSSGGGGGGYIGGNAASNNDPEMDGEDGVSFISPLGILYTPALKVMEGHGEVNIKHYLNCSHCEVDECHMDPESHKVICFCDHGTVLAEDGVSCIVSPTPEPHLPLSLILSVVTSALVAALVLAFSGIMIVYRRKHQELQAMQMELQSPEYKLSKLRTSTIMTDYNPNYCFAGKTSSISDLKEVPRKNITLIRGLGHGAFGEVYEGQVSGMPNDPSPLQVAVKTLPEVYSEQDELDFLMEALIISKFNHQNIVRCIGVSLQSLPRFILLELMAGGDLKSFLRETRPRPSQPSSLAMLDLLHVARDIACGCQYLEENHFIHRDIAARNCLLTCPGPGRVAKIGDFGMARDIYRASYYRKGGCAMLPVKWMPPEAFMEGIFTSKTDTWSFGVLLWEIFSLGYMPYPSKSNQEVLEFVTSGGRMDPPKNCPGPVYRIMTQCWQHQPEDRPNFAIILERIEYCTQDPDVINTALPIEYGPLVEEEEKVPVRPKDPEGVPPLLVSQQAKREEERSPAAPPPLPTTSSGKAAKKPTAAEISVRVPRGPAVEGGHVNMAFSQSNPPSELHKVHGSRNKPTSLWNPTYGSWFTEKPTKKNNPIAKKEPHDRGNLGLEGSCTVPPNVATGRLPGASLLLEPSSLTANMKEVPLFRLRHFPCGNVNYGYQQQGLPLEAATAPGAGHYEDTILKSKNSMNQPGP

The compound `COc1cc(N(C)c2ccnc3ccc(C(F)(F)F)cc23)cc(OC)c1OC` displayed a % binding in assay [1] of 83%.
For the compound `Nc1cnc(N2CCc3cc(S(=O)(=O)Nc4c(F)cc(Cl)cc4F)cc(N4CCCC4=O)c32)nc1` [TP-020n], the % of control in assay [2] was determined as 100%; in assay [3] it was 78%.
On to `C=CC(=O)Nc1cc(-n2c(=O)ccc3cnc4ccc(-c5ccc(NS(C)(=O)=O)cc5)cc4c32)ccc1C`, for which the % of control in assay [4] (at 1 µM) stood at 87%; in assay [4] (at 10 µM), 100%.
